{"source": "patent US20260124201A1", "about": "“CYCLOPENTANE COMPOUND” (Kissei Pharmaceutical Co., Ltd., priority 2022, published 2026)", "key": {"wild-type mice": {"system": "wild-type mice", "details": "subcutaneous administration; cited from earlier work"}, "NT1 patients": {"system": "NT1 patients", "details": "clinical study; cited from earlier work"}, "human OX2R": {"target": "T1, human OX2R (Homo sapiens, UniProt O43614)", "T1 construct": "expressed in transfected cells", "T1 sequence (O43614 1-444)": "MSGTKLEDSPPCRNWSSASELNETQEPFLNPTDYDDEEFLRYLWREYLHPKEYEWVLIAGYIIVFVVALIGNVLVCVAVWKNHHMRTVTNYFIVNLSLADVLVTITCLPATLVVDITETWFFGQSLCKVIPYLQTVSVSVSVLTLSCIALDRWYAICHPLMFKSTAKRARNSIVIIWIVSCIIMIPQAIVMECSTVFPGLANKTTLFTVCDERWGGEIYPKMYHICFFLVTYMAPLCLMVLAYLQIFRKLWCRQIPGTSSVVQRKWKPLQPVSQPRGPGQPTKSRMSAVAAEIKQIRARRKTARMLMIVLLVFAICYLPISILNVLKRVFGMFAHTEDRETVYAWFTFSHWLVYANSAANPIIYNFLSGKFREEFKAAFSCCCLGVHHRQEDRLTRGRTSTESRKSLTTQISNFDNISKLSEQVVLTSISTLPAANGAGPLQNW", "assay": "Measurement of OX2R agonist activity (intracellular calcium concentration change, Fluo4-AM, FDSS 7000)", "format": "cell-based", "details": "compound concentration 10 μM; human OX2R-expressing CHO-K1 cells; 1 μM human orexin A peptide = 100%, medium alone = 0%", "outline": "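Stable human OX2R-expressing CHO-K1 cells, loaded 45 min at 37 °C with 1.14 μM Fluo4-AM plus probenecid in HEPES-buffered HBSS pH 7.4; calcium fluorescence read by FDSS. Activation at 10 μM compound expressed relative to 1 μM human orexin A (100%) and medium alone (0%).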"}}, "data": [{"smiles": "COC(=O)N1CCC[C@H](NS(C)(=O)=O)[C@@H]1CO[C@H]1CC[C@@H](c2ccccc2)CC1", "note": "[TAK-925]", "values": [{"measurement": "wake time", "setting": "wild-type mice", "result": "prolonging of wake time"}, {"measurement": "wakefulness and daytime sleepiness", "setting": "NT1 patients", "result": "maintaining wakefulness and reducing daytime sleepiness"}]}, {"smiles": "C=CS(=O)(=O)N[C@H]1CC[C@](Cc2ccc(F)c(-c3ncc(F)cn3)c2)(C(=O)N(C)OC)C1", "note": "[Example 53, (1R,3S)-1-(4-Fluoro-3-(5-fluoropyrimidin-2-yl)benzyl)-N-methoxy-N-methyl-3-(vinylsulfonamido)cyclopentane-1-carboxamide]", "values": [{"measurement": "Act. (%): activation rate of test substance", "setting": "human OX2R", "result": 106, "unit": "%"}]}, {"smiles": "CON(C)C(=O)[C@@]1(Cc2cccc(-c3ccccc3O)c2)CC[C@H](NS(C)(=O)=O)C1", "note": "(relative stereo) [Example 11]", "values": [{"measurement": "Act. (%): activation rate of test substance", "setting": "human OX2R", "result": 71, "unit": "%"}]}, {"smiles": "CON(C)C(=O)[C@@]1(Cc2cccc(-c3ccco3)c2)CC[C@H](NS(C)(=O)=O)C1", "note": "(relative stereo) [Example 14]", "values": [{"measurement": "Act. (%): activation rate of test substance", "setting": "human OX2R", "result": 93, "unit": "%"}]}, {"smiles": "CON(C)C(=O)C1(Cc2cccc(-c3ncccn3)c2)CCC(NS(C)(=O)=O)C1", "note": "(single isomer, unassigned) [Example 46, N-Methoxy-N-methyl-3-(methylsulfonamido)-1-(3-(pyrimidin-2-yl)benzyl)cyclopentane-1-carboxamide]", "values": [{"measurement": "Act. (%): activation rate of test substance", "setting": "human OX2R", "result": 93, "unit": "%"}]}, {"smiles": "COc1cnc(-c2cccc(C[C@]3(C(=O)N(C)OC)CC[C@H](NS(C)(=O)=O)C3)c2)nc1", "note": "(relative stereo) [Example 20]", "values": [{"measurement": "Act. (%): activation rate of test substance", "setting": "human OX2R", "result": 75, "unit": "%"}]}, {"smiles": "CON(C)C(=O)[C@@]1(Cc2cccc(-c3ncc(F)cn3)c2)C[C@H](F)[C@H](NS(=O)(=O)C2CC2)C1", "note": "[Example 60, (1R,3R,4S)-3-(Cyclopropanesulfonamido)-4-fluoro-1-(3-(5-fluoropyrimidin-2-yl)benzyl)-N-methoxy-N-methylcyclopentane-1-carboxamide]", "values": [{"measurement": "Act. (%): activation rate of test substance", "setting": "human OX2R", "result": 94, "unit": "%"}]}, {"smiles": "CON(C)C(=O)[C@@]1(Cc2cccc(-c3ncc(C(F)(F)F)cn3)c2)CC[C@H](NS(C)(=O)=O)C1", "note": "(relative stereo) [Example 19]", "values": [{"measurement": "Act. (%): activation rate of test substance", "setting": "human OX2R", "result": 45, "unit": "%"}]}, {"smiles": "CON(C)C(=O)[C@@]1(Cc2ccc(C)c(-c3ncc(F)cn3)c2)CC[C@H](NS(C)(=O)=O)C1", "note": "(relative stereo) [Example 22]", "values": [{"measurement": "Act. (%): activation rate of test substance", "setting": "human OX2R", "result": 87, "unit": "%"}]}, {"smiles": "CON(C)C(=O)[C@@]1(Cc2cccc(-c3ncc(F)cn3)c2)CC[C@H](NS(C)(=O)=O)C1", "note": "(relative stereo) [Example 17]", "values": [{"measurement": "Act. (%): activation rate of test substance", "setting": "human OX2R", "result": 99, "unit": "%"}]}]}
